Test results reported in patent US6610675B1 (priority 1980, dated 2003).
Where “and” joins values, the source holds several entries; their conditions need not be identical. Identical values can stand only once. One block for each compound: values may come before it.

Legend:
[1] = tested on: granulation tissue formation caused by implantation of cotton pellets; test: Granuloma formation test (local cotton pellet granuloma assay); assay type: in vivo, rat; settings: Table III
Method: The test compound was dissolved in acetone and aliquots of varying concentrations were injected into cotton pellets. The pellets were dried and then one pellet was implanted beneath the skin of each test rat. Six days later, the animals were sacrificed and the granulation tissue (granuloma) which formed in and around the implanted pellet was removed, dried and weighed. In addition, the thymi and adrenals were removed and weighed.

[2] = tested on: ear swelling induced by croton oil; test: Ear edema test; assay type: in vivo, rat; settings: for Ear Weight, % Increase / Ear Weight, % Inhibition / Ear Weight, Inflamed Ear / Ear Weight, Untreated Ear: 6 hr; for Relative organ weight Adrenals / Relative organ weight Thymus: 48 hours
Method: The test animals were Sprague/Dawley rats weighing approximately 150 grams each. In treatment groups, selected amounts of the test compound were dissolved in acetone containing 5% croton oil and 50 microliters of the solution were applied to the inner surface of the right ear of the rats. A control group was identically treated with vehicle only, i.e. 5% croton oil in acetone. Six hours after croton oil challenge, a constant region of each ear was removed by dissection under anesthesia. Then, 48 hours after steroid treatment, the animals were sacrificed and the thymi and adrenals were removed and weighed. The test results showing the inhibitory effect of topically applied steroids on the ear swelling induced by croton oil are summarized in Table II below.

blanching in humans = test: McKenzie-type human blanching studies; assay type: in vivo; settings: forearm, 6 hours occlusion
Method: McKenzie-type human blanching studies were undertaken to study the blanching effects of a representative test compound of the invention, chloromethyl 17α-ethoxycarbonyloxy-11β-hydroxyandrost-4-en-3-one-17β-carboxylate.
The test compound was dissolved in ethanol/isopropyl myristate (90/10 or 70/30) at 0.03, 0.01, 0.003, 0.001 and 0.0003 M concentrations. 50 Microliter aliquots of each solution were applied to separate gauze portions of a bandage of the type commonly used for allergy testing and the bandage was applied to the forearm. After 6 hours of occlusion, the bandage was removed.

thymus weight in rats = test: Thymus involution test (topically administered steroids, thymus weight in rats); settings: 0.75 μmol topical on ear, after 24 hours
Method: The test animals were female Sprague/Dawley rats weighing approximately 40-45 grams each. One side of each ear of each rat was treated with a total of 25 microliters of a solution (ethanol/isopropyl myristate or acetone/isopropyl myristate, 90/10) containing the amount of test compound indicated below. Animals which were treated identically, save for omission of the test compound, served as controls. After 24 hours, all rats were sacrificed and weighed, and their thymi were removed and weighed.
The lower the weight of the thymi, the greater the systemic activity.

- melting point: 133 to 136 °C and 137.5 to 138 °C
Structure (SMILES): CCOC(=O)O[C@]1(C(=O)OCSC)CCC2C3CCC4=CC(=O)CCC4(C)C3C(O)CC21C (stereo partly shown)

- melting point: 138 to 140 °C
Structure (SMILES): CC(C)OC(=O)OC1(C(=O)OCCl)[C@H](C)C[C@H]2[C@@H]3CCC4=CC(=O)C=C[C@]4(C)[C@@]3(F)C(=O)C[C@@]21C (stereo partly shown)

Structure (SMILES): COC(=O)O[C@]1(C(=O)OCCl)CCC2C3CCC4=CC(=O)CCC4(C)C3C(O)CC21C (stereo partly drawn) [chloromethyl 11β-hydroxy-17α-methoxycarbonyloxyandrost-4-en-3-one-17β-carboxylate]
- Granulation tissue Dry wt. ([1]; 1 mg/pellet): 24.6 ± 2.6 mg/100 g body wt.
- Granulation tissue Inhibition ([1]; 1 mg/pellet): 43.7%
- melting point: 171 to 173 °C

Structure (SMILES): CCOC(=O)O[C@]1(C(=O)OCCl)CC[C@H]2[C@@H]3CCC4=CC(=O)CC[C@]4(C)[C@H]3[C@@H](O)C[C@@]21C [chloromethyl 17α-ethoxycarbonyloxy-11β-hydroxyandrost-4-en-3-one-17β-carboxylate]
- Body wt. gain ([1]; 0.1 mg/pellet): 36.0 ± 2.8 g
- Granulation tissue Dry wt. ([1]; 0.1 mg/pellet): 34.7 ± 4.3 mg/100 g body wt.
- Granulation tissue Inhibition ([1]; 0.1 mg/pellet): 20.6%
- Relative organ weight Adrenals ([1]; 0.1 mg/pellet): 22.9 ± 2.6 mg/100 g body wt.
- Relative organ weight Adrenals (Decrease %) ([1]; 0.1 mg/pellet): (3.4) %
- Relative organ weight Thymus ([1]; 0.1 mg/pellet): 282 ± 13 mg/100 g body wt.
- Relative organ weight Thymus (Decrease %) ([1]; 0.1 mg/pellet): (13.5) %
- Body wt. gain ([1]; 0.3 mg/pellet): 33.0 ± 1.3 g
- Granulation tissue Dry wt. ([1]; 0.3 mg/pellet): 25.3 ± 2.3 mg/100 g body wt.
- Granulation tissue Inhibition ([1]; 0.3 mg/pellet): 42.1%
- Relative organ weight Adrenals ([1]; 0.3 mg/pellet): 22.8 ± 1.0 mg/100 g body wt.
- Relative organ weight Adrenals (Decrease %) ([1]; 0.3 mg/pellet): (3.8) %
- Relative organ weight Thymus ([1]; 0.3 mg/pellet): 298 ± 16 mg/100 g body wt.
- Relative organ weight Thymus (Decrease %) ([1]; 0.3 mg/pellet): (8.6) %
- Body wt. gain ([1]; 1 mg/pellet): 32.8 ± 0.9 g
- Granulation tissue Dry wt. ([1]; 1 mg/pellet): 14.0 ± 1.8 mg/100 g body wt.
- Granulation tissue Inhibition ([1]; 1 mg/pellet): 68.0%
- Relative organ weight Adrenals ([1]; 1 mg/pellet): 21.8 ± 1.3 mg/100 g body wt.
- Relative organ weight Adrenals (Decrease %) ([1]; 1 mg/pellet): (8.0) %
- Relative organ weight Thymus ([1]; 1 mg/pellet): 304 ± 10 mg/100 g body wt.
- Relative organ weight Thymus (Decrease %) ([1]; 1 mg/pellet): (6.7) %
- Body wt. gain ([1]; 3 mg/pellet): 30.7 ± 1.5 g
- Granulation tissue Dry wt. ([1]; 3 mg/pellet): 18.7 ± 2.3 mg/100 g body wt.
- Granulation tissue Inhibition ([1]; 3 mg/pellet): 57.2%
- Relative organ weight Adrenals ([1]; 3 mg/pellet): 19.6 ± 1.1 mg/100 g body wt.
- Relative organ weight Adrenals (Decrease %) ([1]; 3 mg/pellet): (17.3) %
- Relative organ weight Thymus ([1]; 3 mg/pellet): 278 ± 21 mg/100 g body wt.
- Relative organ weight Thymus (Decrease %) ([1]; 3 mg/pellet): (14.7) %
- Ear Weight, % Increase ([2]; 0.3 mg/kg topical): 23.3 ± 7.2 %
- Ear Weight, % Inhibition ([2]; 0.3 mg/kg topical): 62.1%
- Ear Weight, Inflamed Ear ([2]; 0.3 mg/kg topical): 62.2 ± 3.0 mg
- Ear Weight, Untreated Ear ([2]; 0.3 mg/kg topical): 50.8 ± 2.4 mg
- Relative organ weight Adrenals ([2]; 0.3 mg/kg topical): 26.0 ± 2.5 mg/100 g body wt.
- Relative organ weight Thymus ([2]; 0.3 mg/kg topical): 290 ± 25 mg/100 g body wt.
- Ear Weight, % Increase ([2]; 1 mg/kg topical): 14.0 ± 6.5 %
- Ear Weight, % Inhibition ([2]; 1 mg/kg topical): 77.2%
- Ear Weight, Inflamed Ear ([2]; 1 mg/kg topical): 55.0 ± 2.6 mg
- Ear Weight, Untreated Ear ([2]; 1 mg/kg topical): 48.4 ± 1.0 mg
- Relative organ weight Adrenals ([2]; 1 mg/kg topical): 18.7 ± 1.4 mg/100 g body wt.
- Relative organ weight Thymus ([2]; 1 mg/kg topical): 293 ± 21 mg/100 g body wt.
- Ear Weight, % Increase ([2]; 3 mg/kg topical): 3.7 ± 8.1 %
- Ear Weight, % Inhibition ([2]; 3 mg/kg topical): 94.0%
- Ear Weight, Inflamed Ear ([2]; 3 mg/kg topical): 52.6 ± 1.8 mg
- Ear Weight, Untreated Ear ([2]; 3 mg/kg topical): 51.6 ± 3.2 mg
- Relative organ weight Adrenals ([2]; 3 mg/kg topical): 20.3 ± 0.8 mg/100 g body wt.
- Relative organ weight Thymus ([2]; 3 mg/kg topical): 288 ± 21 mg/100 g body wt.
- swelling of the ear caused by croton oil (in words) ([2]; topical, Table II): substantially inhibited the swelling
- thymus weight as compared to the control (in words) ([2]; topical, Table II): did not significantly decrease the thymus weight as compared to the control
- blanching (blanching in humans; 0.03 to 0.0003 M, 50 microliter, read 1 to 5 hours after removal): blanching was observed even at the lowest concentrations
- concentration causing approximately the same degree of blanching (blanching in humans; direct comparison): ~0.001 M
- Total Weight per Rat, % Gain ± SD (thymus weight in rats): 33 ± 6%
- Total Weight per Rat, Final (thymus weight in rats): 60.60 g
- mg Thymus ± SD / 100 g Rat (thymus weight in rats): 309 ± 24 mg/100 g
